Laboratory results reported in patent US20220273631A1, “METHOD FOR TREATING SEXUAL DYSFUNCTION” (Catalyst Pharmaceuticals, Inc., priority 2019, published 2022).

Legend:
subject two = experiment: International Index of Erectile Function (IIEF) self-report before and after 4-week oral treatment; assay type: in vivo, human; design: key to IIEF question 1 score: able to get an erection during sexual activity / IIEF question 4 score: able to maintain erection after penetration / IIEF question 7 score: attempted intercourse satisfactory: each question scored 0-5; details: for IIEF question 1 score: able to get an erection during sexual activity / IIEF question 2 score: erections hard enough for penetration / IIEF question 3 score: able to penetrate partner when attempting intercourse / IIEF question 4 score: able to maintain erection after penetration / IIEF question 5 score: difficulty to maintain erection to completion of intercourse / IIEF question 6 score: attempts for sexual intercourse / IIEF question 7 score: attempted intercourse satisfactory / IIEF question 8 score: enjoyment of sexual intercourse / IIEF question 9 score: ejaculated with sexual stimulation or intercourse / IIEF question 10 score: feeling of orgasm or climax / IIEF question 11 score: how often felt sexual desire / IIEF question 12 score: level of sexual desire / IIEF question 13 score: satisfaction with overall sex life / IIEF question 14 score: satisfaction with sexual relationship with partner / IIEF question 15 score: confidence to get and keep an erection: post-treatment IIEF
Text: The “International Index of Erectile Function” or “IIEF” is a self-report inventory consisting of 15 questions and 5 functional domains, which was developed for use in determining efficacy of treatment in controlled clinical trials. The IIEF has high sensitivity and specificity for detecting real treatment effects or the lack of treatment effects in patients with ED of broad-spectrum etiology. A score of 0-5 is awarded to each of the 15 questions that examine the 4 main domains of male sexual function: erectile function, orgasmic function, sexual desire, and intercourse satisfaction. Rosen, R., et al. (in Urology 49:822-830 (1997)) describe a study where the IIEF was tested in a series of 111 men with […] and 109 age-matched, normal volunteers. In some embodiments, the therapeutic efficacy of 3,4-diaminopyridine, or a pharmaceutically acceptable thereof, in the present methods in male subjects can be assessed by the Brief Male Sexual Function Inventory (BSFI) described by, for example, Mykletun et al., BJU International 97:316-323 (2005). In some embodiments, the Male Sexual Health Questionnaire (MSHQ) can be used to assess sexual function and satisfaction in older men with urogenital symptoms of lower urinary tract and sexual dysfunction. See, e.g., Rosen, et al., Urology 64(4):777-782 (2004). In some embodiments, the therapeutic efficacy of 3,4-diaminopyridine, or a pharmaceutically acceptable thereof, in the present methods in male subjects, can be assessed by the 15-question International Index of Erectile Function (IIEF) described by, for example, Rosen et al., Urology 49:822-830 (1997). […] The subject then orally self-administered a total daily dose of 60 mg (4 times 15 mg) of 3,4-diaminopyridine phosphate salt for 4 weeks. The last dose of each day was self-administered at about 8:30 pm. The timing of their sexual activity, if any, was at about 11:30 am (after the 11 am dose) or at about 4 pm. After the 4-week treatment period, the subject self-reported sexual functioning for the past 4 weeks using the IIEF questionnaire (“the post-treatment IIEF”). […] The subject then orally self-administered a total daily dose of 80 mg (4 times 20 mg) of 3,4-diaminopyridine phosphate salt for 4 weeks. The last dose of each day was self-administered at about 6:30 pm. The timing of their sexual activity, if any, was at about 7:30 pm. After the 4-week treatment period, the subject self-reported sexual functioning for the past 4 weeks using the IIEF questionnaire (“the post-treatment IIEF”).

subject one = experiment: Female Sexual Functioning Index (FSFI) self-report before and after 4-week oral treatment; assay type: in vivo, human; details: for FSFI: confidence about becoming sexually aroused / FSFI: difficulty to become lubricated / FSFI: difficulty to maintain lubrication until completion / FSFI: difficulty to reach orgasm / FSFI: how often became lubricated / FSFI: how often felt sexual desire or interest / FSFI: how often felt sexually aroused / FSFI: how often maintained lubrication until completion / FSFI: how often reached orgasm / FSFI: how often satisfied with arousal / FSFI: level of sexual arousal / FSFI: level of sexual desire or interest / FSFI: satisfaction with ability to reach orgasm / FSFI: satisfaction with amount of emotional closeness with partner / FSFI: satisfaction with overall sexual life / FSFI: satisfaction with sexual relationship with partner: post-treatment FSFI
Text: The “Female Sexual Functioning Index” or “FSFI” is a 19-item self-report inventory designed to assess female sexual function. It comprises six domains: desire (two items)], arousal (four items), lubrication (four items), orgasm, satisfaction, and pain (three items each).
The therapeutic efficacy of 3,4-diaminopyridine and its salts in the present methods can be determined by clinicians, for example, by using appropriate self-report inventories or questionnaires. In some embodiments, the therapeutic efficacy of 3,4-diaminopyridine, or a pharmaceutically acceptable thereof, in the present methods in female subjects can be assessed by the Female Sexual Functioning Index (FSFI) designed to measure sexual functioning in women. See, e.g., Rosen et al., Journal of Sex and Marital Therapy 26:191-208 (2000).
subject one self-reported their sexual functioning for the past 4 weeks using the FSFI questionnaire (“the pre-treatment FSFI”).
The subject then orally self-administered a total daily dose of 80 mg of 3,4-diaminopyridine phosphate salt for 4 weeks. The last dose of each day was self-administered at about 5:30 pm. The timing of their sexual activity, if any, was in the evening.
After the 4-week treatment period, the subject self-reported their sexual functioning for the past 4 weeks using the FSFI questionnaire (“the post-treatment FSFI”).
The subject then orally self-administered a total daily dose of 60 mg of 3,4-diaminopyridine phosphate salt for 4 weeks. The last dose of each day was self-administered at about 6 pm. The timing of their sexual activity, if any, was in the evening at 8-9 pm.
The subject then orally self-administered a total daily dose of 40 mg of 3,4-diaminopyridine phosphate salt for 4 weeks. The last dose of each day was self-administered at about 11 pm (5 mg). The timing of their sexual activity, if any, was in the morning, afternoon, and at night.

[1] = Example 4, subject, 60 mg daily (4 times 15 mg) orally for 4 weeks
[2] = Example 4, subject, 60 mg daily orally for 4 weeks
[3] = Example 4, subject, 60 mg daily orally for 4 weeks, maximum score 10, pre-treatment score 4
[4] = Example 5, subject, 80 mg daily (4 times 20 mg) orally for 4 weeks
[5] = Example 1 subject one, total daily dose 80 mg orally for 4 weeks
[6] = Example 2 subject one, total daily dose 60 mg orally for 4 weeks
[7] = Example 3 subject one, total daily dose 40 mg orally for 4 weeks
[8] = four week course of an effective daily dose, general statement

Nc1ccncc1N.O=P(O)(O)O [3,4-diaminopyridine phosphate salt]
increased sexual satisfaction: sexual satisfaction (FSFI before and after) (subject one; [8])
improved: effect on all the 5 IIEF domains of male sexual function (subject two; Example 4, subject, 60 mg daily orally for 4 weeks, Table 3)
8: Post-Treatment Score, IIEF domain B. Orgasmic Function (questions 9 and 10) (subject two; [3]) | Post-Treatment Score, IIEF domain E. Overall Satisfaction (questions 13 and 14) (subject two; [3])
overall improvement: sexual functioning of subjects suffering from sexual dysfunction (subject one; daily oral administration, general statement)
most times: FSFI: how often became lubricated (subject one; [5]) | FSFI: how often maintained lubrication until completion (subject one; [5]) | FSFI: how often reached orgasm (subject one; [5]) | FSFI: how often satisfied with arousal (subject one; [5]) | FSFI: how often felt sexually aroused (subject one; [6])
4: IIEF question 1 score: able to get an erection during sexual activity (subject two; [1]) | IIEF question 2 score: erections hard enough for penetration (subject two; [1]) | IIEF question 3 score: able to penetrate partner when attempting intercourse (subject two; [1]) | IIEF question 5 score: difficulty to maintain erection to completion of intercourse (subject two; [1]) | IIEF question 7 score: attempted intercourse satisfactory (subject two; [1]) | IIEF question 8 score: enjoyment of sexual intercourse (subject two; [1]) | IIEF question 9 score: ejaculated with sexual stimulation or intercourse (subject two; [1]) | IIEF question 10 score: feeling of orgasm or climax (subject two; [1]) | IIEF question 12 score: level of sexual desire (subject two; [1]) | IIEF question 13 score: satisfaction with overall sex life (subject two; [1]) | IIEF question 14 score: satisfaction with sexual relationship with partner (subject two; [1]) | IIEF question 15 score: confidence to get and keep an erection (subject two; [1]) | IIEF question 1 score: able to get an erection during sexual activity (subject two; [4]) | IIEF question 2 score: erections hard enough for penetration (subject two; [4]) | IIEF question 3 score: able to penetrate partner when attempting intercourse (subject two; [4]) | IIEF question 5 score: difficulty to maintain erection to completion of intercourse (subject two; [4]) | IIEF question 7 score: attempted intercourse satisfactory (subject two; [4]) | IIEF question 8 score: enjoyment of sexual intercourse (subject two; [4]) | IIEF question 9 score: ejaculated with sexual stimulation or intercourse (subject two; [4]) | IIEF question 10 score: feeling of orgasm or climax (subject two; [4]) | IIEF question 12 score: level of sexual desire (subject two; [4]) | IIEF question 13 score: satisfaction with overall sex life (subject two; [4]) | IIEF question 14 score: satisfaction with sexual relationship with partner (subject two; [4]) | IIEF question 15 score: confidence to get and keep an erection (subject two; [4])
11: Post-Treatment Score, IIEF domain D. Intercourse Satisfaction (questions 6-8) (subject two; Example 4, subject, 60 mg daily orally for 4 weeks, maximum score 15, pre-treatment score 5)
almost always or always: FSFI: how often felt sexual desire or interest (subject one; [5]) | FSFI: how often felt sexually aroused (subject one; [5]) | FSFI: how often became lubricated (subject one; [6]) | FSFI: how often felt sexual desire or interest (subject one; [6]) | FSFI: how often reached orgasm (subject one; [6]) | FSFI: how often satisfied with arousal (subject one; [6]) | FSFI: how often became lubricated (subject one; [7]) | FSFI: how often felt sexual desire or interest (subject one; [7]) | FSFI: how often felt sexually aroused (subject one; [7]) | FSFI: how often maintained lubrication until completion (subject one; [7]) | FSFI: how often reached orgasm (subject one; [7]) | FSFI: how often satisfied with arousal (subject one; [7])
multiple orgasms: orgasms experienced after taking the drug, not experienced before (subject report) (subject one; [7])
not difficult: FSFI: difficulty to reach orgasm (subject one; [5]) | FSFI: difficulty to become lubricated (subject one; [6]) | FSFI: difficulty to maintain lubrication until completion (subject one; [6]) | FSFI: difficulty to reach orgasm (subject one; [6]) | FSFI: difficulty to become lubricated (subject one; [7]) | FSFI: difficulty to maintain lubrication until completion (subject one; [7]) | FSFI: difficulty to reach orgasm (subject one; [7])
3: IIEF question 4 score: able to maintain erection after penetration (subject two; [1]) | IIEF question 6 score: attempts for sexual intercourse (subject two; [1]) | IIEF question 4 score: able to maintain erection after penetration (subject two; [4]) | IIEF question 6 score: attempts for sexual intercourse (subject two; [4])
increased orgasmic ability: orgasmic ability (FSFI before and after) (subject one; [8])
increased sexual desire: sexual desire (FSFI before and after) (subject one; [8])
more confident: confidence while being treated (subject report) (subject one; [5]) | confidence while being treated (subject report) (subject one; [6])
high: FSFI: level of sexual arousal (subject one; [5])
5: IIEF question 11 score: how often felt sexual desire (subject two; [1]) | IIEF question 11 score: how often felt sexual desire (subject two; [4])
very high: FSFI: confidence about becoming sexually aroused (subject one; [5]) | FSFI: confidence about becoming sexually aroused (subject one; [6]) | FSFI: level of sexual arousal (subject one; [6]) | FSFI: level of sexual desire or interest (subject one; [6]) | FSFI: confidence about becoming sexually aroused (subject one; [7]) | FSFI: level of sexual arousal (subject one; [7]) | FSFI: level of sexual desire or interest (subject one; [7])
better: overall sexual performance (subject report) (subject two; [2]) | overall sexual performance (subject report) (subject two; Example 5, subject, 80 mg daily orally for 4 weeks) | emotional experience with partner (subject report) (subject one; [5]) | emotional experience with partner (subject report) (subject one; [6])
23: Post-Treatment Score, IIEF domain A. Erectile Function (questions 1-5 and 15) (subject two; Example 4, subject, 60 mg daily orally for 4 weeks, maximum score 30, pre-treatment score 8)
almost never or never: FSFI: how often maintained lubrication until completion (subject one; [6])
more aroused: arousal (subject report) (subject two; [2])
slightly difficult: FSFI: difficulty to become lubricated (subject one; [5]) | FSFI: difficulty to maintain lubrication until completion (subject one; [5])
moderate: FSFI: level of sexual desire or interest (subject one; [5])
9: Post-Treatment Score, IIEF domain C. Sexual Desire (questions 11 and 12) (subject two; Example 4, subject, 60 mg daily orally for 4 weeks, maximum score 10, pre-treatment score 5)
shorter: time to reach orgasm (subject report) (subject one; [5]) | time to reach orgasm (subject report) (subject one; [6])
very satisfied: FSFI: satisfaction with ability to reach orgasm (subject one; [5]) | FSFI: satisfaction with amount of emotional closeness with partner (subject one; [5]) | FSFI: satisfaction with overall sexual life (subject one; [5]) | FSFI: satisfaction with sexual relationship with partner (subject one; [5]) | FSFI: satisfaction with ability to reach orgasm (subject one; [6]) | FSFI: satisfaction with amount of emotional closeness with partner (subject one; [6]) | FSFI: satisfaction with overall sexual life (subject one; [6]) | FSFI: satisfaction with sexual relationship with partner (subject one; [6]) | FSFI: satisfaction with ability to reach orgasm (subject one; [7]) | FSFI: satisfaction with amount of emotional closeness with partner (subject one; [7]) | FSFI: satisfaction with overall sexual life (subject one; [7]) | FSFI: satisfaction with sexual relationship with partner (subject one; [7])
